Measured values: patent US20240425478A1, “CYCLOPENTYLPYRAZOLE CDK2 INHIBITORS” (Genentech, Inc., priority 2021, published 2024)
Where two headings read alike, the source gives them in different places.

Columns and labels:
HCT116 cells = assay: p-H3 HCT-116 mitotic release cell proliferation assay (cellular CDK1); assay type: cell-based; conditions: Homo sapiens
Outline: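 HCT116 cells arrested 16 h with 500 nM nocodazole, then exposed to compound for 4 h at 37 °C (0.1% DMSO). Lysates read by HTRF/FRET with donor and acceptor phospho-Histone H3 (Ser10) antibodies, ≥2 h at room temperature; CDK1 inhibition seen as loss of p-H3 on mitotic release.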

[1] = target: T1, Cyclin Dependent Kinase 1/Cyclin A2 (CDK1-cycA2) (Homo sapiens, UniProt P06493); assay: CDK1-cycA2 TR-FRET (Lance) enzyme assay; assay type: biochemical; conditions: Table O, enzymatic assay
T1 construct: purchased ProQinase 0134-0054-1
Outline: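 Human CDK1/cyclin A2 pre-incubated 30 min with compound dose responses in 50 mM HEPES pH 7.5, 10 mM MgCl2, 2 mM TCEP, 0.05% BGG, 0.01% Brij 35. Reaction quenched with EDTA (15 mM final); TR-FRET readout using Eu-anti-phospho-4E-BP1, acceptor/donor ratio. Inhibition constants from Morrison equation.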

[2] = test system: OVISE (JCRB1043, CCNE1-amplified); assay: OVISE EdU incorporation cell proliferation assay (CDK2-dependent); assay type: cell-based; conditions: for IC50: read-out: CDK2 OVISE IC50; for FS SKOV-3/OVISE / FS p-H3/OVISE: fold selectivity; for FS SKOV-3/OVISE: cellular SKOV-3 IC50 over OVISE IC50; for FS p-H3/OVISE: cellular p-H3 IC50 over OVISE IC50
Outline: (§1)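 Cells in RPMI/10% FBS dosed with compound (0.5% DMSO final) for 16 h at 37 °C, 5% CO2, then EdU 0.5 μM final for 8 h before fixation and imaging. IC50 from 4-parameter logistic fit of EdU-positive cell fraction versus dose.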

SKOV-3 (ATCC HTB-77) = assay: SKOV-3 EdU incorporation cell proliferation assay (CDK4/6-dependent); assay type: cell-based; conditions: Homo sapiens
Outline: as §1

[3] = target: T2, Cyclin Dependent Kinase 2/Cyclin E1 (CDK2-cycE1) (Homo sapiens, UniProt P24941); assay: CDK2-cycE1 TR-FRET (LANCE) enzyme assay; assay type: biochemical; conditions: Table O; for Ki: enzymatic assay, read-out: CDK2 Ki; for FS CDK1/CDK2 / FS CDK4/CDK2: fold selectivity; for FS CDK1/CDK2: enzymatic CDK1 Ki over CDK2 Ki; for FS CDK4/CDK2: enzymatic CDK4 Ki over CDK2 Ki
T2 construct: purchased ProQinase 0050-0055-1
Outline: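 Compound dose responses pre-incubated 30 min with CDK2-cycE1 in 50 mM HEPES pH 7.5, 10 mM MgCl2, 2 mM TCEP, 0.05% BGG, 0.01% Brij 35. Reaction quenched with EDTA (15 mM final), phospho-MBP detected by Eu-anti-phospho-MBP TR-FRET (acceptor/donor ratio). Inhibition constants from Morrison equation.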

[4] = target: T3, Cyclin Dependent Kinase 4/Cyclin D3 (CDK4-cycD3) (Homo sapiens, UniProt P11802); assay: CDK4-cycD3 TR-FRET (LANCE) enzyme assay; assay type: biochemical; conditions: Table O, enzymatic assay
T3 construct: purchased Carna Biosciences 04-105
Outline: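 Compound dose responses pre-incubated 30 min with enzyme mix in 50 mM HEPES pH 7.5, 10 mM MgCl2, 2 mM TCEP, 0.05% BGG, 0.01% Brij 35. Reaction quenched with EDTA (15 mM final); Eu-anti-phospho-4E-BP1 TR-FRET detection, acceptor/donor ratio. Ki derived by Morrison equation.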

[5] = HCT-116, Table O, cellular assay, read-out: CDK1 p-H3 IC50
[6] = SK-OV-3, Table O, cellular assay, read-out: CDK4/6 SKOV-3 IC50

T1 sequence (P06493 whole entry): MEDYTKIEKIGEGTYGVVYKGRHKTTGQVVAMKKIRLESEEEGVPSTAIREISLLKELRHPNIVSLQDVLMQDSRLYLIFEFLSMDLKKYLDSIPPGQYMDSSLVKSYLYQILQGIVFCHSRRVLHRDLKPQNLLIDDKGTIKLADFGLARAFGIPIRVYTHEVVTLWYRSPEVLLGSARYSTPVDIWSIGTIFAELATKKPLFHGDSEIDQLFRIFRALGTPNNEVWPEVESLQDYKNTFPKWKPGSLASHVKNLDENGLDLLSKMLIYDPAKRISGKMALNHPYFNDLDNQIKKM
T1 sequence (P20248 whole entry partner): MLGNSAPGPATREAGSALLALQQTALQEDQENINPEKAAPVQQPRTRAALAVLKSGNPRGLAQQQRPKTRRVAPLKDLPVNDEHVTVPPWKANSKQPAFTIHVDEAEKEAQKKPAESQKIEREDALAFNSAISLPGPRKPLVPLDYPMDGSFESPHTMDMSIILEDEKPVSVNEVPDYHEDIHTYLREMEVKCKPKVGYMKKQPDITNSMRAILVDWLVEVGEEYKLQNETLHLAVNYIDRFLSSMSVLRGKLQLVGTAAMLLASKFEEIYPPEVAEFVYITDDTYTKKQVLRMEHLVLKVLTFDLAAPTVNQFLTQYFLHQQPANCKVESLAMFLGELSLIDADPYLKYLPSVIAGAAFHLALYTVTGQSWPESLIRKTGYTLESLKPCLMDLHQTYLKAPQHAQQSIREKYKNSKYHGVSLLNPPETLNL
T3 sequence (P11802 whole entry): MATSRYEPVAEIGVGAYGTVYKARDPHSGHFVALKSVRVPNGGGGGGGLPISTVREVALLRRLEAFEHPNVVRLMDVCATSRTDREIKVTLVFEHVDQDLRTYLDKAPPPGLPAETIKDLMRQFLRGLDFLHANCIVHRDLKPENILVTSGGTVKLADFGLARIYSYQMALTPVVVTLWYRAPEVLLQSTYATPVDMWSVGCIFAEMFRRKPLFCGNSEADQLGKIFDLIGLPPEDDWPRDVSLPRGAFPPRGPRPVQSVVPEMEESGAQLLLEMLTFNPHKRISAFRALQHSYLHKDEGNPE
T3 sequence (P30281 whole entry partner): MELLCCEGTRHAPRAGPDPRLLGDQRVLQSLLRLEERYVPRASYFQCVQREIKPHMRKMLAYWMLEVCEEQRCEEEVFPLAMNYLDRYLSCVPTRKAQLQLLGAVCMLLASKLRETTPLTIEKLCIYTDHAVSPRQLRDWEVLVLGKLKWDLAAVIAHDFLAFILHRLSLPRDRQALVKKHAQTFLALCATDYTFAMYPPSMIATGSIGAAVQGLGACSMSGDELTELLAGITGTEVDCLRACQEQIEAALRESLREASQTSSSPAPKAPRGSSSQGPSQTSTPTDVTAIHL

Compound	IC50 (HCT116 cells; [5]) [nM]	Ki [1] [nM]	IC50 (SKOV-3 (ATCC HTB-77); [6]) [nM]	Ki [3] [nM]	FS CDK1/CDK2 [3]	FS CDK4/CDK2 [3]	Ki [4] [nM]	IC50 ([2]; Table O, cellular assay) [nM]	FS SKOV-3/OVISE ([2]; Table O)	FS p-H3/OVISE ([2]; Table O)	IC50 (HCT116 cells; HCT-116, read-out: CDK1 p-H3 IC50) [nM]	IC50 [2] [nM]	IC50 (SKOV-3 (ATCC HTB-77); SK-OV-3, read-out: CDK4/6 SKOV-3 IC50) [nM]
CC(C)(C)NC(=O)O[C@@H]1CC[C@H](c2cc(Nc3ccnc(CO)c3)n[nH]2)C1 [Example 10C, (1R,3S)-3-(3-((2-(hydroxymethyl)pyridin-4-yl)amino)-1H-pyrazol-5-yl)cyclopentyl tert-butylcarbamate]	180	58	5700	1.8	32	28	51	130	44	1.4			
Cc1nc(C#N)ccc1Nc1cc([C@H]2CC[C@@H](OC(=O)NC(C)(C)C)C2)[nH]n1 [Example 10D, (1R,3S)-3-(3-((6-cyano-2-methylpyridin-3-yl)amino)-1H-pyrazol-5-yl)cyclopentyl tert-butylcarbamate]	97	59	2800	0.44	134	195	86	46	61	2.1			
CC1(NC(=O)O[C@@H]2CC[C@H](c3cc(Nc4ccc(C#N)cn4)n[nH]3)C2)COC1 [Example 10E, (1R,3S)-3-(3-((5-cyanopyridin-2-yl)amino)-1H-pyrazol-5-yl)cyclopentyl (3-methyloxetan-3-yl)carbamate]		25		0.78	32	82	64		20	1.1	120	110	2200
Cc1nnccc1Nc1cc([C@H]2CC[C@@H](OC(=O)NC(C)(C)C)C2)[nH]n1 [Example 11A, (1R,3S)-3-(3-((3-methylpyridazin-4-yl)amino)-1H-pyrazol-5-yl)cyclopentyl tert-butylcarbamate]	230	83	12000	0.63	132	444	280	120	100	1.9			

Further lines, with some results ahead:

IC50 (HCT116 cells; [5]) [nM]	Ki [1] [nM]	IC50 (SKOV-3 (ATCC HTB-77); [6]) [nM]	Ki [3] [nM]	FS CDK1/CDK2 [3]	FS CDK4/CDK2 [3]	Ki [4] [nM]	Compound	IC50 ([2]; Table O, cellular assay) [nM]	FS SKOV-3/OVISE ([2]; Table O)	FS p-H3/OVISE ([2]; Table O)	IC50 (HCT116 cells; HCT-116, read-out: CDK1 p-H3 IC50) [nM]	IC50 [2] [nM]	IC50 (SKOV-3 (ATCC HTB-77); SK-OV-3, read-out: CDK4/6 SKOV-3 IC50) [nM]
39	30	150	4.7	6.4	2	9.5	CN1CCN(c2ccc(Nc3cc([C@H]4CC[C@@H](OC(=O)NC56CC(C5)C6)C4)[nH]n3)cn2)CC1 [Example 9H, (1R,3S)-3-(3-((6-(4-methylpiperazin-1-yl)pyridin-3-yl)amino)-1H-pyrazol-5-yl)cyclopentyl bicyclo[1.1.1]pentan-1-ylcarbamate]	150	1	0.26			
6.9	8.9	360	0.38	23	97	37	O=C(NC12CC(C1)C2)O[C@@H]1CC[C@H](c2cc(Nc3ccc(CO)nc3)n[nH]2)C1 [Example 9I, (1R,3S)-3-(3-((6-(hydroxymethyl)pyridin-3-yl)amino)-1H-pyrazol-5-yl)cyclopentyl bicyclo[1.1.1]pentan-1-ylcarbamate]	30	12	0.23			
39	64	280	1.9	34	8.9	17	CN(C)Cc1ccc(Nc2cc([C@H]3CC[C@@H](OC(=O)NC45CC(C4)C5)C3)[nH]n2)cn1 [Example 9J, (1R,3S)-3-(3-((6-((dimethylamino)methyl)pyridin-3-yl)amino)-1H-pyrazol-5-yl)cyclopentyl bicyclo[1.1.1]pentan-1-ylcarbamate]	89	3.1	0.44			
49	41	710	5.6	7.3	12	67	O=C(NC12CC(C1)C2)O[C@@H]1CC[C@H](c2cc(Nc3ccc(N4CCOCC4)nc3)n[nH]2)C1 [Example 9K, (1R,3S)-3-(3-((6-morpholinopyridin-3-yl)amino)-1H-pyrazol-5-yl)cyclopentyl bicyclo[1.1.1]pentan-1-ylcarbamate]	190	3.7	0.26			
